Source: patent US5272175A, “Substituted tyrosyl diamide compounds” (priority 1992, dated 1993)
Where a name gives a salt, the structure may show the parent alone. Read-outs that look alike come from different tables or passages of the source.

Experiments:
[1] = tested on: mice; assay: Writhing Assay (phenylbenzoquinone (PBQ)-induced writhing), analgesic activity; type: in vivo, CD Charles River mice; settings: Mus musculus, 50% of mice with writhes <= half control median
Excerpt: The "Writhing Assay" is one of the most widely-used experimental procedures for measuring the analgesic activity of different narcotic and nonnarcotic analgesic agents, and involves the continuous, chemically-induced pain of visceral origin to an animal, such as a mouse or rat. [Gyires et al., Arch. int. Pharmacodyn, 267, 131-140 (1984); C. Vander Wende et al., Fed. Proc., 15, 494 (1956); Koster et al., Fed. Proc., 18, 412 (1959); and Witken et al., J. Pharmacol. Exp. Ther., 133, 400-408 (1961).] Chemicals which may be used to induce this pain include phenylbenzoquinone (PBQ) and acetic acid. As a result of the chemical irritation to the animal, a characteristic stretching and writhing of the animal (dorsiflexion of the animal's back, extension of its hindlimbs and the strong contraction of its abdominal musculature) will generally occur. […] Drugs which reduce the number of writhes of the animal appear to restore the normal nociceptive threshold of the animal.
This assay was conducted generally in the manner described by R. I. Taber, "Predictive Value of Analgesic Assays in Mice and Rats," Advances in Biochemical Phychopharmacology, 8, 191 (1974).
Two hundred CD Charles River mice, weighing 20 to 30 grams, were used in this assay.
Twenty-five minutes after subcutaneous administration, and fifteen minutes after oral administration, to the mice of 10 mg per kilogram (mpk) of body weight of either a tyrosyl diamide compound of the invention (hereinafter "test compound"), or of the Jacobson Compound, 0.1 mL per 10 g of body weight of a 0.025% w/v solution of phenylbenzoquinone (PBQ) was injected intraperitoneally into each mouse. Some mice were given saline in place of a test compound, or of the Jacobson Compound, and were used as a control group.
Five minutes later, each mouse was individually placed into a glass beaker for observation, and the number of writhes occurring during the following ten-minute period was counted.
A compound was considered to be "active" (to have produced analgesia in a mouse) if, after the administration of 10 mg per kilogram (mpk) of body weight of the compound to the mouse, the number of writhes elicited by a mouse injected with PBQ was equal to, or less than, one-half the median number of writhes recorded for the saline-treated control group of mice that day, as described by R. I. Taber, supra.
The standard initial screening dose of a test compound employed in this assay was 10 mpk […] for both routes of administration. If this initial screening dose of the compound produced analgesia in seven of ten mice, then the effect of additional doses of the compound on the writhing response was evaluated, and then the ED50 value (that dose of a compound which produced analgesia in 50% of the mice to which the compound was administered) was calculated. A maximum likelihood function was used to determine the ED50 value. (The slopes of the dose-response curves for the compounds analyzed were compared as described by Tallarida and Murray, Manual of Pharmacologic Calculations, Page 1 (Springer Verlag, N.Y., 1981)).

[2] = molecular target: δ opioid receptors (Rattus norvegicus, UniProt P33533); assay: Opiate Binding Assay, displacement of 3[H]-DSLET from δ receptors; settings: for Mean IC50 μ/δ Ratio: ratio of mean IC50 values for μ and δ, above 1.0 = more δ specific
Chain of δ opioid receptors (P33533 whole entry): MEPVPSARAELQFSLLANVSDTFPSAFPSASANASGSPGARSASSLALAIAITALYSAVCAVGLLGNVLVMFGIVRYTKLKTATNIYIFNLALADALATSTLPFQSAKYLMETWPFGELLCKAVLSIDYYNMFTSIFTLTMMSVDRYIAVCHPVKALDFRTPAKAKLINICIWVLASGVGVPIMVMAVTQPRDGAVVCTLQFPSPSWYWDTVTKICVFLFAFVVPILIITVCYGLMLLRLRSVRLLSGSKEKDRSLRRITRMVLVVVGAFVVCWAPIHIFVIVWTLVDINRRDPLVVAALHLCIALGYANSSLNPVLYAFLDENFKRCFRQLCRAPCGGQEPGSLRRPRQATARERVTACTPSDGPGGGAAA

[3] = molecular target: μ opioid receptors (Rattus norvegicus, UniProt P33535); assay: Opiate Binding Assay, displacement of 3[H]-DAMPGO from μ receptors
Chain of μ opioid receptors (P33535 whole entry): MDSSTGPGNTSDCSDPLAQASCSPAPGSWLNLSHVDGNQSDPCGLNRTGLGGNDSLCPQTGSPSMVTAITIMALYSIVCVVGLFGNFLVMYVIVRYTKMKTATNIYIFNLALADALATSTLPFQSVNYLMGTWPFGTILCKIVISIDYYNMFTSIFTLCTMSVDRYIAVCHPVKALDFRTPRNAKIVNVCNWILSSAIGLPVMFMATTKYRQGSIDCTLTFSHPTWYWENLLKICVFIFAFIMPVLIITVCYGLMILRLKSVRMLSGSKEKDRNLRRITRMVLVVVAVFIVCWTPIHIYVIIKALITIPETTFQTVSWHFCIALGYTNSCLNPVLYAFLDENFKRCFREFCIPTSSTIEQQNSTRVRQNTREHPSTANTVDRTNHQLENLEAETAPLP

[4] = tested on: mice; settings: general statement on both tests; cited from earlier work
[5] = tested on: mice; settings: general statement on both tests; cited from earlier work; remark: listed apart in the source
[6] = tested on: brain opioid receptor sites; settings: cited from earlier work
[7] = tested on: opioid activity; settings: cited from earlier work
[8] = sc, 25 min, subcutaneous, PBQ i.p. 25 min after compound, read-out: ED50, Writhing Assay, Subcutaneous (S.C.)

Compound	ED50 [1, 8] [mg/kg]	IC50 [2] [nM]	Mean IC50 μ/δ Ratio [2]	IC50 [3] [nM]	other results
Cc1cc(O)cc(C)c1C[C@H](N)C(=O)NC(C)(C)CNC(=O)[C@H](Cc1ccccc1)NC(=O)OCc1ccccc1 [Example 10, Phenylmethyl[1S-[[2-[[2S-amino-3-(4-hydroxy-2,6-dimethylohenyl)-1-oxopropyl]amino]-2-methylpropyl]-amino]carbonyl]-2-phenylethyl]carbamate, monohydrochloride]	5	4	0.8	3.3	
CC(=O)N[C@@H](Cc1ccccc1)C(=O)NCC(C)(C)NC(=O)[C@@H](N)Cc1c(C)cc(OC(C)=O)cc1C [Example 16, αS-(acetylamino)-N-2-[2-[[4-(acetyloxy)-2,6-dimethylphenyl]-2S-amino-1-oxopropyl]amino]-2-methylpropyl]benzenepropanamide, hydrochloride]	5		0.7		IC50 ([2]; read-out: Mean IC50 Value, δ, rat forebrain membranes, 3[H]-DSLET 1.0 nM, 37° C., pH 7.4): 0.78 nM; IC50 ([3]; read-out: Mean IC50 Value, μ, rat forebrain membranes, 3[H]-DAMPGO 2.0 nM, 37° C., pH 7.4): 0.51 nM
CC(=O)N[C@@H](CCc1ccccc1)C(=O)NCC(C)(C)NC(=O)[C@@H](N)Cc1c(C)cc(O)cc1C [Example 18, αS-(acetylamino)-N-[2-[[2S-amino-3-(4-hydroxy-2,6-dimethylohenyl)-1-oxopropyl]amino]-2-methyloropyl]-benzenebutanamide, hydrochloride]	5	4.7	0.07	0.33	
CNC(=O)N[C@@H](Cc1ccccc1)C(=O)NCC(C)(C)NC(=O)[C@@H](N)Cc1c(C)cc(O)cc1C [Example 37, αS-amino-N-1,1-dimethyl-2-[2S-[[(methylamino)carbonyl]amino]-1-oxo-3-phenylpropyl]amino]ethyl]-4-hydroxy-2,6-dimethylbenzeneoropanamide, monohydrochloride]	5	~2		< 10	
CC(=O)N[C@@H](Cc1ccccc1)C(=O)NCC(C)(C)NC(=O)[C@H](N)Cc1c(C)cc(O)c(C)c1C [Example 41, αS-(acetylamino)-N-[2-[[2R-amino-3-(4-hydroxy-2,3,6-trimethylphenyl) -1-oxopropyl]amino]-2-methylpropyl]benzenepropanamide, monohydrochloride]		257	0.5	122	
Cc1cc(O)cc(C)c1C[C@H](N)C(=O)N[C@H](C)CNC(=O)[C@H](Cc1ccccc1)NC(=O)OCc1ccccc1 [Example 46, Phenylmethyl[1S[[[2R-[[2S-amino-3-(4-hydroxy-2,6-dimethylphenyl) -1-oxopropyl]amino]propylamino]carbonyl]-2-phenylethyllcarbamate, hydrochloride]		4.2	0.2	0.88	
CC(=O)N[C@@H](Cc1ccccc1)C(=O)NCCNC(=O)[C@@H](N)Cc1c(C)cc(O)cc1C [Example 48, αS-(Acetylamino)-N-[(2-[[2S-amino-3-(4-hydroxy-2,6-dimethylphenyl)-1-oxopropyl]aminoethyl]benzenepropanamide, hydrochloride]		2.9	0.1	0.3	
CC(=O)N[C@@H](Cc1c(C)cccc1C)C(=O)NCCNC(=O)[C@@H](N)Cc1c(C)cc(O)cc1C [Example 52, αS-(Acetylamino)-N-[2-[[2S-amino-3-(4-hydroxy-2,6-dimethylphenyl)-1-oxopropyl]amino]ethyl]-2,6-dimethylbenzeneoropanamide, hydrochloride]	5	32		0.6	
CC(=O)N[C@@H](Cc1ccccc1)C(=O)N1CCN(C(=O)[C@@H](N)Cc2c(C)cc(O)cc2C)CC1 [Example 54, N-[1S-[[4-[2-S-Amino-3-(4-hydroxy-2,6-dimethylphenyl)-1-oxopropyl]-1-piperazinyl]carbonyl]-2-phenylethyl]acetamide, monohydrochloride]		88.8	0.04	3.3	
CC(=O)N[C@@H](Cc1ccccc1)C(=O)N1CCC(NC(=O)[C@@H](N)Cc2c(C)cc(O)cc2C)C1 (stereo partly drawn) [Example 56, N-1-[2S-(Acetylamino)-1-oxo-3-phenylpropyl]-3-pyrrolidinyl]-αS-amino-4-hydroxy-2,6-dimethylbenzenepropanamide, monohydrochloride]		50.3	1.7	85.5	
Cc1cc(O)cc(C)c1C[C@H](N)C(=O)NC(C)(C)CNC(=O)[C@H](Cc1ccccc1)NC(=O)NS(=O)(=O)c1ccccc1 [Example 59, S-amino-N-[1,1-dimethyl-2-[[1-oxo-3-phenyl-2S-[[[(phenylsulfonyl)amino]carbonyl]amino]propyl]amino]ethyl]-4-hydroxy-2,6-dimethylbenzeneoropanamide, monohydrochloride]		7.3	0.4	3.2	
CC(=O)N[C@@H](Cc1ccccc1)C(=O)NCC(C)(C)NC(=O)[C@@H](N)Cc1ccc(O)cc1 [Jacobson Compound, reference compound]	1.6	2	0.3	0.6	ED50 ([1]; 0.25 h, oral, PBQ i.p. 15 min after compound, read-out: ED50, Writhing Assay, Oral (p.o.)): 4.1 mg/kg
Cc1cc(CC(=O)O)n(C)c1C(=O)c1ccc(Cl)cc1 [Zomax]					activity in Tail Flick Assay [4]: little activity; activity in Hot Plate Assay [5]: little activity
CC(=O)Oc1ccccc1C(=O)O [aspirin]					activity in Tail Flick Assay [4]: little activity; activity in Hot Plate Assay [5]: little activity
COc1ccc2c3c1O[C@H]1[C@@H](O)C=C[C@H]4[C@@H](C2)N(C)CC[C@@]341 [codeine]					activity in Tail Flick Assay [4]: active in both of these tests; activity in Hot Plate Assay [5]: active in both of these tests
CC(C)C[C@H](NC(=O)[C@H](Cc1ccccc1)NC(=O)CNC(=O)CNC(=O)[C@@H](N)Cc1ccc(O)cc1)C(=O)O [leucine enkephalin, H2 N-Tyr-Gly-Gly-Phe-Leu-OH]					binding to opiate / brain opioid receptor sites [6]: bind to the same receptor sites as do the opiates; opioid / morphine-like activity [7]: some weak morphine-like actions
CSCC[C@H](NC(=O)[C@H](Cc1ccccc1)NC(=O)CNC(=O)CNC(=O)[C@@H](N)Cc1ccc(O)cc1)C(=O)O [methionine enkephalin, H2 N-Tyr-Gly-Gly-Phe-Met-OH]					binding to opiate / brain opioid receptor sites [6]: bind to the same receptor sites as do the opiates; opioid / morphine-like activity [7]: some weak morphine-like actions
CN1CC[C@]23c4c5ccc(O)c4O[C@H]2[C@@H](O)C=C[C@H]3[C@H]1C5 [morphine]					activity in Tail Flick Assay [4]: active in both of these tests; activity in Hot Plate Assay [5]: active in both of these tests
